The source of these data is ChEMBL document CHEMBL2040736, “Design of potent and selective hybrid inhibitors of the mitotic kinase Nek2: structure-activity relationship, structural biology, and cellular activity” (J Med Chem, 2012).

Some results are limits rather than exact numbers.

Series [1] concerns the target T1, Serine/threonine-protein kinase Nek2 (Homo sapiens, UniProt P51955).
T1 sequence (P51955 whole entry): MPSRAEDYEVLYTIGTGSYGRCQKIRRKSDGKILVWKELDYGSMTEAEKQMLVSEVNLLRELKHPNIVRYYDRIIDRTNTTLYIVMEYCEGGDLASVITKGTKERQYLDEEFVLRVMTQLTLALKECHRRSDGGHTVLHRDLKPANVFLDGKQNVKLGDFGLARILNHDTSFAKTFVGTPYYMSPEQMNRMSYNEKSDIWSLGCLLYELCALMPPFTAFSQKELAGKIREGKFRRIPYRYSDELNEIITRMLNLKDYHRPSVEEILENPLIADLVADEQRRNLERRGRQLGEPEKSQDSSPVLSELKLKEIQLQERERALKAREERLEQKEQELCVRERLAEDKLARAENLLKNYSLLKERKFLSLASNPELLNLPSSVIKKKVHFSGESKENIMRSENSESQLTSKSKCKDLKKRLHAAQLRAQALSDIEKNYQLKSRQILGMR

The target in series [2] is Serine/threonine-protein kinase PLK1 (Homo sapiens, UniProt P53350). Description: Inhibition of Plk1 using 5-FAMRRRAGALMDASFEEQ- CONH2 as substrate after 75 mins by caliper method.
Serine/threonine-protein kinase PLK1, sequence (P53350 whole entry): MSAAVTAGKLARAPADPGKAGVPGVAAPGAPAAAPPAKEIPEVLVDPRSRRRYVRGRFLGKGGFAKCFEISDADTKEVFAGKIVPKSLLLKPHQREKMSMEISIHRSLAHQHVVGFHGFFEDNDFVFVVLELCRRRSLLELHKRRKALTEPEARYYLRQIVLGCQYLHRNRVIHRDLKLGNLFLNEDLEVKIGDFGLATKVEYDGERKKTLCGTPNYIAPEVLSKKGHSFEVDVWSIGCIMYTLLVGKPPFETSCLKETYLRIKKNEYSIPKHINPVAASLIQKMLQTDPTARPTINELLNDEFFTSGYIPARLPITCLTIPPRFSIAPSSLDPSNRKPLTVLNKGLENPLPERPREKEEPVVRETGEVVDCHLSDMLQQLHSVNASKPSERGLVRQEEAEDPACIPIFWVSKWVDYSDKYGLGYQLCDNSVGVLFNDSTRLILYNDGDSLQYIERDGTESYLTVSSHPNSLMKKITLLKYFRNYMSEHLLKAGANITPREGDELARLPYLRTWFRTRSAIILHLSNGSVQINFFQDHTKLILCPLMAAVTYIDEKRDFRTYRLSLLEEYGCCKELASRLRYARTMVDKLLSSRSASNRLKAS
The nature of series [3]: Drug metabolism in mouse liver microsomes after 30 mins. Type of series: ADME, Microsome. Particulars: read-out: Drug metabolism. A general note: Liver microsomes are vesicles of endoplasmic reticulum, rich in cytochrome P450 enzymes; call rule not given here.
Series [4] addresses T2, Dual specificity protein kinase TTK (Homo sapiens, UniProt P33981).
T2 sequence (P33981 whole entry): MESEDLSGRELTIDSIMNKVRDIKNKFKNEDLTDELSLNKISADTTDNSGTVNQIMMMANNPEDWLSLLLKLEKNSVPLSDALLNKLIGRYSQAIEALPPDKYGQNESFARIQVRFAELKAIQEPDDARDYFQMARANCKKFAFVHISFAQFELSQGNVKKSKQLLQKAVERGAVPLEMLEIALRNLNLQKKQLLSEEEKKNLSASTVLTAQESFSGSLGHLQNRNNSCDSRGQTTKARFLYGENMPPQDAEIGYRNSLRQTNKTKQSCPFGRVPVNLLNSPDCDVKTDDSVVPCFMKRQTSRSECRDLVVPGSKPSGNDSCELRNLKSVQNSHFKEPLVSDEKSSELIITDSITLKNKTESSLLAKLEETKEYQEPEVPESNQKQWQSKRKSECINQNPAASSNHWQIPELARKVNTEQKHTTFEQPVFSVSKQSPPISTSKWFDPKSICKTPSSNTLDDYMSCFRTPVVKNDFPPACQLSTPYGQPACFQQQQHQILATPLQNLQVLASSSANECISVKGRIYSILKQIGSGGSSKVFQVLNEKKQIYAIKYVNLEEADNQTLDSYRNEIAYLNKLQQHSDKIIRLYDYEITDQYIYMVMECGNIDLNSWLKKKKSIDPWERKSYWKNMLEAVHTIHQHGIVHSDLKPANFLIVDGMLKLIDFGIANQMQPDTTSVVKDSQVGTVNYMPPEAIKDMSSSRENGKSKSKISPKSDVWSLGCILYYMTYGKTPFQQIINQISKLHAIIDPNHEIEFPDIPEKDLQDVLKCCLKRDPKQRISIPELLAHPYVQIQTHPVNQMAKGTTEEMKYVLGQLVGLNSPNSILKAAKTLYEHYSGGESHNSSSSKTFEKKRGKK
Description: Inhibition of MPS1 by caliper method.

The test system of series [5] is U2OS. As to the kind of experiment: Growth inhibition of human U2OS cells after 92 hrs by CellTiter-Blue assay. Type of series: functional.
The target of series [6] is T3, Aurora kinase A (Homo sapiens, UniProt O14965).
T3 sequence (O14965 whole entry): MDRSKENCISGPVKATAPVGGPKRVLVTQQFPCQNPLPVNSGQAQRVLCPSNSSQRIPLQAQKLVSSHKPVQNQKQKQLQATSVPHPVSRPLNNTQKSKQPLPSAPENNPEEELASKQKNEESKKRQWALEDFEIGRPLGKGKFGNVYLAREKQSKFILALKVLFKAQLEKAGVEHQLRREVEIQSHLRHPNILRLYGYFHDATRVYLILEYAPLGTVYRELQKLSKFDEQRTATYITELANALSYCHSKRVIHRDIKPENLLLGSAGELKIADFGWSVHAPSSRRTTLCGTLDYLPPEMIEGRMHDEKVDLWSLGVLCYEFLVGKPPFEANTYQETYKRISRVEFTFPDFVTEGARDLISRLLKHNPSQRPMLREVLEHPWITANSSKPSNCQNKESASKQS
As to the kind of experiment: Inhibition of Aurora A kinase by caliper method.

The subject of series [7] is HeLa. As to the kind of experiment: Growth inhibition of human HeLa cells after 92 hrs by CellTiter-Blue assay. The format is functional. In general terms: The colour change of resazurin is a common sign of viable cells or microbes.
For series [8], the target named is Cyclin-dependent kinase 2 (Homo sapiens, UniProt P24941). As to the kind of experiment: Inhibition of CDK2 by caliper method.
Series [9] deals with MDA-MB-231. Description: Growth inhibition of human MDA-MB-231 cells after 92 hrs by CellTiter-Blue assay. The format is functional. The settings on record: MDA-MB-231, 92 h.
In series [10] the test system is MCF7. Description: Growth inhibition of human MCF7 cells after 92 hrs by CellTiter-Blue assay. Type of series: functional. The settings on record: MCF7, 92 h.
Series [11] has as its target T1, Serine/threonine-protein kinase Nek2. Particulars: u2os.
Description: Inhibition of Nek2-mediated C-Nap1 phosphorylation in human U2OS cells after 3 hrs by immunofluorescence microscopy
The nature of series [12]: Permeability of the compound by PAMPA assay. The format is ADME.

As usually defined, the IC50 is the midpoint of a concentration-inhibition curve. The low end stands for greater potency, the high end for weaker potency. For `CC(Oc1cc(-c2nc(-c3ccc(CN(C)C)s3)cnc2N)ccc1C(N)=O)c1ccccc1C(F)(F)F` (racemic), the 50% inhibitory concentration (IC50) in series [1] was determined as 2680 nM.
With `CC(Oc1cc(-c2cc(-c3cccc(CN(C)C)c3)cnc2N)ccc1C(N)=O)c1ccccc1C(F)(F)F` (racemic), the results for the IC50 in series [1] and in [2] were 210 nM and 3290 nM, respectively.
`CC(Oc1cc(-c2cc(-c3cc(CN(C)C)cs3)cnc2N)ccc1C(N)=O)c1ccccc1C(F)(F)F` (racemic): the metabolised at 0.5 h in series [3] was 87%. In series [2], this molecule displayed an IC50 of 1320 nM.
Broadly, the GI50 is the concentration giving 50% growth inhibition. A high value points to less potent growth inhibition. For `C[C@@H](Oc1cc(-c2cc(-c3cc(CN(C)C)cs3)cnc2N)ccc1C(N)=O)c1ccccc1C(F)(F)F`, the IC50 was 4810 nM in [4], 8810 nM in series [6], 26600 nM in [8] and 820 nM in series [2]. Further, the 50% growth inhibitory concentration (GI50) in series [5] worked out at 480 nM; in [7], 140 nM; in series [9], 950 nM; in series [10], 220 nM.
For `CC(Oc1cc(-n2cnc3cc(OC4CCN(C)CC4)ccc32)ccc1C(N)=O)c1ccccc1C(F)(F)F` (racemic), in series [11], the IC50 result was “Not Active”. Moreover, the GI50 in series [5] came out at 2960 nM; in series [7] it was 1200 nM; in series [9], 4950 nM; in series [10] it was 2030 nM.
Regarding `CC(Oc1cc(-c2cc(-c3ccc(CN(C)C)cc3)cnc2N)ccc1C(N)=O)c1ccccc1C(F)(F)F` (racemic), the 50% inhibitory concentration (IC50) was 3060 nM in [4]; 7930 nM in [6]; 120 nM in series [1]; 2740 nM in series [8]; 1560 nM in series [2].
Take `CC(Oc1cc(-c2nc(-c3cc(CN(C)C)cs3)cnc2N)ccc1C(N)=O)c1ccccc1C(F)(F)F` (racemic): the half-maximal inhibitory concentration (IC50) in series [1] worked out at 2630 nM.
On to `COc1cc(-c2cc(-c3cccs3)cnc2N)ccc1C(N)=O`, for which the midpoint of inhibition in series [1], the IC50, lay at 10500 nM.
Take `CC(Oc1cc(-c2cc(-c3ccc(CN(C)C)s3)cnc2N)ccc1C(N)=O)c1ccccc1C(F)(F)F` (racemic): the IC50 in series [1] was 47 nM; in series [2], 500 nM.
For `Cc1cc(CN(C)C)sc1-c1cnc(N)c(-c2ccc(C(N)=O)c(OC(C)c3ccccc3C(F)(F)F)c2)c1` (racemic), inhibition in series [1] was half-maximal at 58 nM (IC50).
Turning to `C[C@@H](/C=C\C(F)(F)F)Oc1cc(-c2cc(-c3cc(CN(C)C)cs3)cnc2N)ccc1C(N)=O`, the IC50 result is “Not Active” in series [11]; 7120 nM in [4]; 2330 nM in [6]; 1800 nM in series [1]; 530 nM in [8]; above 50000 nM in series [2]. Besides, the 50% growth inhibitory concentration (GI50) in series [5] was determined as 2170 nM; in series [7] it was 440 nM; in [9], 7250 nM; in series [10], 5420 nM.
For `CC(/C=C\C(F)(F)F)Oc1cc(-c2cc(-c3cc(CN(C)C)cs3)cnc2N)ccc1C(N)=O` (racemic), the metabolised at 0.5 h in [3] is 95%. Besides, the values for the IC50 in series [1] and in series [2] were 73 nM and 8410 nM, respectively. Moreover, the permeability in series [12] is 27.6 ×10⁻⁶ cm/s.
On to `CC(Oc1cc(-c2nc(-c3ccc(CN(C)C)cc3)cnc2N)ccc1C(N)=O)c1ccccc1C(F)(F)F` (racemic), for which the concentration for half-maximal inhibition (IC50) came to 790 nM in [1] and 3900 nM in series [2].
As for `CC(Oc1cc(-c2nc(-c3cccc(CN(C)C)c3)cnc2N)ccc1C(N)=O)c1ccccc1C(F)(F)F` (racemic), the half-inhibitory concentration (IC50) in [1] was 2470 nM; in series [2], 12100 nM.
In the case of `CC(Oc1cc(-c2cc(-c3cccs3)cnc2N)ccc1C(N)=O)c1ccccc1C(F)(F)F` (racemic), in series [1], 9000 nM corresponded to half-maximal inhibition (IC50).
`Cc1cc(-c2cnc(N)c(-c3ccc(C(N)=O)c(OC(C)c4ccccc4C(F)(F)F)c3)c2)sc1CN(C)C` (racemic) returned an IC50 in series [1] of 47 nM.
On to `CC(Oc1cc(-c2cc(-c3ccc(CN4CCOCC4)s3)cnc2N)ccc1C(N)=O)c1ccccc1C(F)(F)F` (racemic), for which the IC50 in series [1] amounted to 318 nM.
For `CC(Oc1cc(-c2cc(-c3ccc(CN4CCCCC4)s3)cnc2N)ccc1C(N)=O)c1ccccc1C(F)(F)F` (racemic), half-maximal inhibition in [1] (IC50) required 93 nM.
Molecule `COc1cc(-c2cc(-c3cc(CN(C)C)cs3)cnc2N)ccc1C(N)=O` returned a 50% inhibitory concentration (IC50) in [1] of 2260 nM.
